For 16 molecules, TGI and GI50 results are on record in PubChem BioAssay (NCI).

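Protocol summary: plate cells (96-well), add compound at 5 concentrations, incubate 48 h, interpolate endpoints linearly. At the GI50, growth is halved. TGI: total growth inhibition.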 Where only a bound is given, the exact number is not on record here.

Among the test systems are 786-0 renal; A498 renal; CCRF-CEM leukemia; HCT-15 colon; NCI-H226 lung; OVCAR-3 ovarian; SF-295 CNS; SW-620 colon; T-47D breast; SR leukemia.
What all share (test): NCI tumour cell line growth inhibition, 48 h

Regarding `O=C(n1c(=O)n(-c2ccc([N+](=O)[O-])cc2)c(=O)n1C(=O)C(Cl)(Cl)Cl)C(Cl)(Cl)Cl`, the TGI in the experiment on 786-0 renal, in the experiment with A498 renal, in the experiment on CCRF-CEM leukemia, with HCT-15 colon, in the experiment on NCI-H226 lung and in the experiment on OVCAR-3 ovarian was above 100 µM each time. The TGI with SF-295 CNS, in the experiment on SW-620 colon and in the experiment on T-47D breast was above 100 µM each time.
Consider `Cc1ccc(N=Nc2cc(=O)[nH]c(=O)[nH]2)cc1C`, for which the TGI in the experiment with 786-0 renal is 8.69 µM; in the experiment with A498 renal, 36.9 µM; in the experiment with CCRF-CEM leukemia, above 100 µM; with HCT-15 colon, 11.2 µM; in the experiment on NCI-H226 lung it was 41.8 µM; with OVCAR-3 ovarian it was 4.19 µM. For the same molecule, the TGI is 28.7 µM in the experiment on SF-295 CNS, above 100 µM with SR leukemia and 14.9 µM in the experiment with SW-620 colon.
Consider `CCOC(=O)Cn1c(C)nc2nn(Cc3ccccc3)cc2c1=O`, for which the TGI in the experiment with 786-0 renal, with A498 renal, with CCRF-CEM leukemia, in the experiment on HCT-15 colon, in the experiment with NCI-H226 lung and with OVCAR-3 ovarian was above 100 µM each time. The TGI with SF-295 CNS, in the experiment on SW-620 colon and in the experiment with T-47D breast was above 100 µM in each case.
Take `CCCCC[C@@H]1OC(=O)[C@@]2(CC3c4ccccc4C2c2ccccc23)[C@H]1C(=O)OC`: the TGI with 786-0 renal is above 100 µM; with A498 renal it was 82.5 µM; in the experiment with CCRF-CEM leukemia, above 100 µM; with HCT-15 colon, above 100 µM; in the experiment with OVCAR-3 ovarian, above 100 µM; with SF-295 CNS, above 100 µM. Besides, the TGI in the experiment with SR leukemia and with SW-620 colon was above 100 µM each time.
With `O=C(NNc1ccc([N+](=O)[O-])cc1)C1OC(CO)C(O)C1O` (configuration not stated), the TGI in the experiment with 786-0 renal, with A498 renal, in the experiment with CCRF-CEM leukemia, in the experiment with HCT-15 colon, with NCI-H226 lung and with OVCAR-3 ovarian was above 100 µM throughout. For the same molecule, the TGI in the experiment on SF-295 CNS is above 100 µM; with SW-620 colon it was 71.3 µM.
Turning to `Cc1cccc(-c2cc(=O)c3c(C)ccnc3[nH]2)c1`, the TGI with 786-0 renal, in the experiment on A498 renal, in the experiment with CCRF-CEM leukemia, in the experiment on HCT-15 colon, with NCI-H226 lung and in the experiment with T-47D breast was above 100 µM throughout.
With `CCCCCCCCCC[C@@H](O)[C@H]1CC[C@@H]([C@H]2CC[C@H]([C@H](O)CCCCCCCCCC[C@@H]3CC(CC(C)=O)C(=O)O3)O2)O1` (some centres not stated), the TGI in the experiment on 786-0 renal is above 100 µM; with A498 renal it was 97 µM; with CCRF-CEM leukemia it was above 100 µM; in the experiment with HCT-15 colon, above 100 µM; with OVCAR-3 ovarian, 39.4 µM; with SF-295 CNS it was above 100 µM. The values for the TGI in the experiment with SW-620 colon and in the experiment on T-47D breast were above 100 µM and 69.4 µM, respectively. Moreover, the GI50 in the experiment with HCT-15 colon is 20.9 µM; in the experiment with NCI-H226 lung, 19.6 µM; in the experiment with OVCAR-3 ovarian it was 18.1 µM; in the experiment with SF-295 CNS, 0.483 µM; in the experiment on SW-620 colon, 37.2 µM; with T-47D breast, 2.99 µM.
`Cc1cn(C2CC(O)C(Cn3cc(Cn4nc(Br)c(=O)[nH]c4=O)nn3)O2)c(=O)[nH]c1=O` (configuration not stated): the TGI is above 100 µM in the experiment with A498 renal; 14.3 µM in the experiment on CCRF-CEM leukemia; above 100 µM in the experiment with HCT-15 colon; above 100 µM with NCI-H226 lung; above 100 µM in the experiment on OVCAR-3 ovarian; above 100 µM in the experiment with SF-295 CNS. Also, the TGI with SW-620 colon and in the experiment with T-47D breast was above 100 µM throughout.
Regarding `O=C(O)C1(Cc2ccc3c(c2)CCC3)Cc2cc3c(cc2C1)CCC3`, the TGI in the experiment with 786-0 renal, with A498 renal, with CCRF-CEM leukemia, in the experiment on HCT-15 colon, in the experiment with NCI-H226 lung and in the experiment with OVCAR-3 ovarian was above 100 µM throughout. For the same molecule, the TGI with SR leukemia and in the experiment with SW-620 colon was above 100 µM in each case.
Take `C=C1C(=O)OC2C1CC1OC2C(C)CCC/C(C)=C\CCC1(C)O` (configuration not stated): the TGI came out at 60.3 µM in the experiment with A498 renal; 22.2 µM with CCRF-CEM leukemia; 63.6 µM in the experiment with HCT-15 colon; 51.3 µM in the experiment on NCI-H226 lung; 32.6 µM with OVCAR-3 ovarian; 85.2 µM in the experiment on SF-295 CNS. In addition, the TGI in the experiment on SW-620 colon came out at 32.6 µM.
As for `CC(C)=CCC/C(C)=C/CCC1(C)C2COC(=O)C21` (configuration not stated), the TGI in the experiment on 786-0 renal is above 100 µM; in the experiment with A498 renal, above 100 µM; in the experiment with CCRF-CEM leukemia it was 80.8 µM; with HCT-15 colon it was above 100 µM; in the experiment with NCI-H226 lung, above 100 µM; in the experiment on OVCAR-3 ovarian it was above 100 µM. Besides, the TGI in the experiment on SF-295 CNS, in the experiment on SR leukemia and in the experiment on SW-620 colon was above 100 µM throughout.
In the case of `Cc1ccc(Oc2cc(C)ccc2P(=O)(O)O)cc1`, the TGI in the experiment on 786-0 renal, in the experiment with CCRF-CEM leukemia, with HCT-15 colon, in the experiment with NCI-H226 lung, with OVCAR-3 ovarian and in the experiment on SF-295 CNS was above 100 µM in each case. The molecule further displayed a TGI with SW-620 colon above 100 µM.
Consider `C=C(Cl)C(=C)CCC(Cl)C(C)(C)Cl` (configuration not stated), for which the TGI with 786-0 renal, in the experiment on A498 renal, with CCRF-CEM leukemia, with NCI-H226 lung, in the experiment with OVCAR-3 ovarian and in the experiment with SF-295 CNS was above 100 µM in each case. Further, the TGI with SR leukemia and in the experiment on SW-620 colon was above 100 µM each time.
Turning to `Cc1ccc(NC(=O)NC23CC4CC(CC(F)(C4)C2)C3)cc1`, the TGI in the experiment on 786-0 renal, with A498 renal, in the experiment with CCRF-CEM leukemia, in the experiment on OVCAR-3 ovarian and in the experiment with SW-620 colon was above 100 µM in each case.
`CN(C)CCCN1C(=O)N(CCCN(C)C)c2c3cc(O)ccc3nc3c([N+](=O)[O-])ccc1c23`: the TGI was 27.2 µM in the experiment with 786-0 renal; 40.3 µM with A498 renal; above 100 µM in the experiment with HCT-15 colon; 61.7 µM in the experiment with NCI-H226 lung; 67.6 µM with OVCAR-3 ovarian; above 100 µM in the experiment with SF-295 CNS. Moreover, the values for the TGI with SW-620 colon and in the experiment on T-47D breast were 53.2 µM and 80.2 µM, respectively.
With `NC(=O)Nc1n[nH]c(-c2ccccc2)n1`, the TGI with 786-0 renal, in the experiment with A498 renal, with CCRF-CEM leukemia, with HCT-15 colon, with NCI-H226 lung and in the experiment with OVCAR-3 ovarian was above 100 µM each time. Moreover, the TGI in the experiment with SF-295 CNS, in the experiment on SW-620 colon and in the experiment on T-47D breast was above 100 µM each time.
